Where two headings read alike, the source gives them in different places.
Experiments:
Type in all cases: cell-based, human
[1] = test system: HCT-116 colon carcinoma; assay: cells; settings: HCT116 colon cancer cells, 3-6 days, crystal violet, triplicate
Procedure: Compounds were tested in HTC 116 cell line, which is an art-recognized isogenic human disease model predictive of activity in human patients. They were tested according to the following standard protocol:
(§1) Antiproliferative assay: The cytotoxicities of arimetamycins A (1), B (2) and C (3) were evaluated using four human cancer cell lines: HCT-116 colon carcinoma (ATCC; CCL-247) [M. G. Brattain, W. D. Fine, F. M. Khaled, J. Thompson, D. E. Brattain, Cancer Res 1981, 41, 1751-1756], WiDr colorectal adenocarcinoma (ATCC; CCL-218) [P. Noguchi, R. Wallace, J. Johnson, E. M. Earley, S. O'Brien, S. Ferrone, M. A. Pellegrino, J. Milstien, C. Needy, W. Browne, J. Petricciani, In vitro 1979, 15, 401-408], MDR-MB-231 breast adenocarcinoma (ATCC; HTB-26) [B. R. Brinkley, P. T. Beall, L. J. Wible, M. L. Mace, D. S. Turner, R. M. Cailleau, Cancer Res 1980, 40, 3118-3129] and H69AR multidrug resistant lung carcinoma (ATCC; CRL-11351) [S. E. Mirski, J. H. Gerlach, S. P. Cole, Cancer Res 1987, 47, 2594-2598] cell lines. HCT-116 and H69AR cells were grown in McCoy's 5A Modified Medium (Gibco) supplemented with 10% (v/v) FBS and RPMI-1640 (ATCC) supplemented with 20% (v/v) FBS, respectively. WiDr and MDA-MB-231 cells were grown in DMEM Medium (Gibco) supplemented with 10% (v/v) FBS. All the cell lines were incubated at 37° C. with 5% CO2. Cells in log phase growth were harvested by trypsinization. Cells were seeded into 96-well plates (HCT-116: 1,000 cells/well, WiDr: 3,000 cells/well, MDA-MB-231: 8,000 cells/well, H69AR: 25,000 cells/well) and incubated overnight at 37° C. with 5% CO2. Compounds 1-3 (in DMSO) were sequentially diluted (3-fold starting at 50 μg/mL) across a 96-well plate and 100 μL was transferred to the appropriate wells in the assay plates. Doxorubicin (Sigma-Aldrich) and daunorubicin (Sigma-Aldrich) were used as positive controls and DMSO was used as a negative control. The plates were incubated at 37° C. for 3-6 days depending on the growth rate and then evaluated for viability using either an MTT (3-(4,5-Dimethylthiazol-2-yl)-2,5-diphenyltetrazolium bromide) (MDR-MB-231 and H69AR) or crystal violet (HCT-116 and WiDr) based colorimetric assay [R. Supino, Methods in molecular biology 1995, 43, 137-149; bD. Zivadinovic, B. Gametchu, C. S. Watson, Breast Cancer Res 2005, 7, R101-112]. Cell viability is recorded based on the percent stain present in each well relative to no drug DMSO control wells. Assays were run in triplicate.

[2] = test system: H69AR multidrug resistant lung carcinoma; assay: cells; settings: multidrug resistant lung cancer cells, 3-6 days, MTT, triplicate, read-out: IC50 H69AR Lung/MDR
Procedure: as §1

[3] = test system: MDA-MB-231 breast adenocarcinoma; assay: cells; settings: breast cancer cells, 3-6 days, MTT, triplicate, read-out: IC50 MDSMB231 Breast
Procedure: as §1

[4] = test system: WiDr colorectal adenocarcinoma; assay: cells; settings: WiDr colon cancer cells, 3-6 days, crystal violet, triplicate
Procedure: as §1

[5] = test system: representative colon, lung and breast cancer cell lines; assay: Anticancer activity against colon, lung and breast cancer cell lines (summary over the panel); settings: for anticancer activity (in words): colon, lung (MDR) and breast cancer cell lines
Procedure: Arimetamycins A-C (1-3) were evaluated for anticancer activity against representative colon, lung and breast cancer cell lines as described below. The lung cancer line (H69AR) is multidrug resistant (MDR), showing high-level resistance to anthracyclines (50-fold) as well as many other anticancer agents including vincristine, etoposide and mitoxantrone. […] P-glycoprotein expression-dependent MDR is the most clinically significant resistance mechanism affecting the utility of anthracyclines. Compounds of the genus described herein are the first anthracyclines from Streptomyces culture that appear effective against MDR cancers.
as §1

IC50 ([1]; Homo sapiens, HCT-116) | IC50 ([2]; Homo sapiens, H69AR) | IC50 ([3]; Homo sapiens, MDA-MB-231) | IC50 ([4]; Homo sapiens) | Compound | IC50 [1] | IC50 [2] | IC50 [3] | IC50 [4] | anticancer activity (in words) [5] | IC50 against all cell lines (in words) ([5]; all cell lines including the H69AR MDR cell line) | IC50 fold lower than doxorubicin or daunorubicin ([5]; compared with either doxorubicin or daunorubicin)
 |  |  |  | COc1cc(O)c2c(c1)C(=O)c1cc3c(c(O)c1C2=O)[C@@H](O[C@H]1C[C@H](O)[C@@H](O)[C@H](C)O1)[C@H](OC)[C@](C)(O)C3=O [Arimetamycin B(2), arimetamycin B] | 1.8 µM | 47.1 µM | 29.6 µM | 7.5 µM | moderate activity |  | 
 |  |  |  | COc1cccc2c1C(=O)c1c(O)c3c(c(O)c1C2=O)C[C@@](O)(C(C)=O)C[C@@H]3O[C@H]1C[C@H](N)[C@H](O)[C@H](C)O1 [Daunorubicin, daunorubicin, reference compound] | 0.0068 µM | 4.8 µM | 0.33 µM | 0.0055 µM |  |  | 
0.0225 µM | 18.4 µM | 0.97 µM | 0.0309 µM | COc1cccc2c1C(=O)c1c(O)c3c(c(O)c1C2=O)C[C@@](O)(C(=O)CO)C[C@@H]3O[C@H]1C[C@H](N)[C@H](O)[C@H](C)O1 [Doxorubicin, doxorubicin, reference compound] |  |  |  |  |  |  | 
 |  |  |  | COc1cc(O)c2c(c1)C(=O)c1cc3c(c(O)c1C2=O)[C@@H](O[C@H]1C[C@H](OC)[C@@H](O)[C@H](C)O1)[C@H](OC)[C@](C)(O)C3=O [Arimetamycin C(3), arimetamycin C] | 1.4 µM | 18.8 µM | 27.7 µM | 5.2 µM | moderate activity |  | 
 |  |  |  | COc1cc(O)c2c(c1)C(=O)c1cc3c(c(O)c1C2=O)[C@@H](O[C@H]1C[C@](C)(N(C)C)[C@H](O[C@H]2C[C@](C)(O)[C@H](N(C)C)[C@H](C)O2)[C@H](C)O1)[C@H](OC)[C@](C)(O)C3=O [Arimetamycin A(1), arimetamycin A] | 0.0025 µM | 0.067 µM | 0.164 µM | 0.0005 µM | highly active against both MDR and drug sensitive cell lines | nanomolar | 2-10 fold
